Experimental data taken from patent US20120264735A1 (priority 2009, published 2012).

target: T1, c-Met kinase (recombinant c-Met) (Homo sapiens, UniProt P08581); assay: In vitro kinase assay I (homogeneous time-resolved fluorescence tyrosine kinase assay); assay type: biochemical
T1 construct: 0.27 nM recombinant c-Met
Outline: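 Biotinylated peptide (0.5 μM) phosphorylated by 0.2 nM recombinant c-Met with 50 μM MgATP, 60 min at room temperature, pH 7.4, 5% DMSO. EDTA stop; HTRF read with Eu-anti-phosphotyrosine antibody and streptavidin-APC. IC50 from 4-parameter logistic fit.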

T1 sequence (P08581 25-1390): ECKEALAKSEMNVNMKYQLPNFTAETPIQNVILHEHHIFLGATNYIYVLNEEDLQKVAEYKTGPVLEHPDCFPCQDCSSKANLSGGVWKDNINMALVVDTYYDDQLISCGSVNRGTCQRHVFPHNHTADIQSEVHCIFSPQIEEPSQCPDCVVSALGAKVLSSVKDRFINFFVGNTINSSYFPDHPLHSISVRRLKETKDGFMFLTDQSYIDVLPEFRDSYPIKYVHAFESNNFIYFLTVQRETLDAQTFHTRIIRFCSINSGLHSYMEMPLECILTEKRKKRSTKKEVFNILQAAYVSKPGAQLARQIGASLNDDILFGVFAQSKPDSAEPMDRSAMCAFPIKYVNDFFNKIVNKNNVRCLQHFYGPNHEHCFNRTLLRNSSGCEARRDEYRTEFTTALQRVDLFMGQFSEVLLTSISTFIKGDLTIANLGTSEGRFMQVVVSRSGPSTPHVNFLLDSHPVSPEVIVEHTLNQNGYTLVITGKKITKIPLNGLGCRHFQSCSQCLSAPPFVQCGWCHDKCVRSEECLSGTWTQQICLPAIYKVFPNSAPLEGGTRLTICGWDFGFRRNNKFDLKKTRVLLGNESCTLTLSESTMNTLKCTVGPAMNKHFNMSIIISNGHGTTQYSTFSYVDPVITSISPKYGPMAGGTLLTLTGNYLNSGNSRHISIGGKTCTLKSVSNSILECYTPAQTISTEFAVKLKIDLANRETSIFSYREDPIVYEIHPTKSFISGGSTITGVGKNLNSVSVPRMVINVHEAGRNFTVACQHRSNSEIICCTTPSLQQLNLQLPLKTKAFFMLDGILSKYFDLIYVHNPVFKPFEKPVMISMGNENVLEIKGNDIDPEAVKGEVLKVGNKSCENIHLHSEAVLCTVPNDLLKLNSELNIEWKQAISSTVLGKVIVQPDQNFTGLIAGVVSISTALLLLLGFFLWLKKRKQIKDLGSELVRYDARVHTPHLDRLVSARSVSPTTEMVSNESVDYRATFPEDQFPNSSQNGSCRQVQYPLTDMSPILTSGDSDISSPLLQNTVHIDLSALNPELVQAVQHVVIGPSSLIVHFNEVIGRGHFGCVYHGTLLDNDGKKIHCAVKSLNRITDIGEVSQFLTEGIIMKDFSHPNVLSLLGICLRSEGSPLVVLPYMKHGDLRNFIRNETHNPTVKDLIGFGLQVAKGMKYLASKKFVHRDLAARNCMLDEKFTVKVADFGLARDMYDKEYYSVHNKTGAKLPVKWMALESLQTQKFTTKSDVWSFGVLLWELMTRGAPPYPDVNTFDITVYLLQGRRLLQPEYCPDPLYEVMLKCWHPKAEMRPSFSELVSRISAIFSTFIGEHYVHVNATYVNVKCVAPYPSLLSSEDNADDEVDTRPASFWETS

IC50, < 100 nM:
CC1(COC(=O)Nc2cccc(Cc3nn(-c4cc(F)c(F)c(F)c4)ccc3=O)c2)COC1 [Example 560, (3-methyloxetan-3-yl)methyl (3-{[4-oxo-1-(3,4,5-trifluorophenyl)-1,4-dihydropyridazin-3-yl]methyl}phenyl)carbamate]
CN(C)C(=O)CCOC(=O)Nc1cccc(Cc2nn(-c3cc(F)c(F)c(F)c3)ccc2=O)c1 [Example 561, 3-(dimethylamino)-3-oxopropyl (3-{[4-oxo-1-(3,4,5-trifluorophenyl)-1,4-dihydropyridazin-3-yl]methyl}phenyl)carbamate]
Cn1cc(-n2ccc(=O)c(Cc3cccc(NC(=O)OCCC(F)(F)F)c3)n2)cn1 [Example 564, 3,3,3-trifluoropropyl (3-{[1-(1-methyl-1H-pyrazol-4-yl)-4-oxo-1,4-dihydropyridazin-3-yl]methyl}phenyl)carbamate]
Cn1cc(-n2ccc(=O)c(Cc3cccc(NC(=O)OCCC4CCOCC4)c3)n2)cn1 [Example 565, 2-(tetrahydro-2H-pyran-4-yl)ethyl (3-{[1-(1-methyl-1H-pyrazol-4-yl)-4-oxo-1,4-dihydropyridazin-3-yl]methyl}phenyl)carbamate]
Cn1cc(-n2ccc(=O)c(Cc3cccc(NC(=O)OCCCN4CCS(=O)(=O)CC4)c3)n2)cn1 [Example 566, 3-(1,1-dioxidothio-morpholin-4-yl)propyl (3-{[1-(1-methyl-1H-pyrazol-4-yl)-4-oxo-1,4-dihydropyridazin-3-yl]methyl}phenyl)carbamate]
Cn1cc(-n2ccc(=O)c(Cc3cccc(NC(=O)OCCN4CCS(=O)(=O)CC4)c3)n2)cn1 [Example 567, 2-(1,1-dioxidothio-morpholin-4-yl)ethyl (3-{[1-(1-methyl-1H-pyrazol-4-yl)-4-oxo-1,4-dihydropyridazin-3-yl]methyl}phenyl)carbamate]
CCN(CC)CCCOC(=O)Nc1cccc(Cc2nn(-c3cnn(C)c3)ccc2=O)c1 [Example 571, 3-(diethylamino)propyl (3-{[1-(1-methyl-1H-pyrazol-4-yl)-4-oxo-1,4-dihydropyridazin-3-yl]methyl}phenyl)carbamate]
Cn1cc(-n2ccc(=O)c(Cc3cccc(NC(=O)OCCCCO)c3)n2)cn1 [Example 572, 4-hydroxybutyl (3-{[1-(1-methyl-1H-pyrazol-4-yl)-4-oxo-1,4-dihydropyridazin-3-yl]methyl}phenyl)carbamate]
COCCCOC(=O)Nc1cccc(Cc2nn(-c3cnn(C)c3)ccc2=O)c1 [Example 575, 3-methoxypropyl (3-{[1-(1-methyl-1H-pyrazol-4-yl)-4-oxo-1,4-dihydropyridazin-3-yl]methyl}phenyl)carbamate]
Cn1cc(-n2ccc(=O)c(Cc3cccc(NC(=O)OCC(F)F)c3)n2)cn1 [Example 576, 2,2-difluoroethyl (3-{[1-(1-methyl-1H-pyrazol-4-yl)-4-oxo-1,4-dihydropyridazin-3-yl]methyl}phenyl)carbamate]
Cn1cc(-n2ccc(=O)c(Cc3cccc(NC(=O)OCCOC4CCCCC4)c3)n2)cn1 [Example 577, 2-(cyclohexyloxy)ethyl (3-{[1-(1-methyl-1H-pyrazol-4-yl)-4-oxo-1,4-dihydropyridazin-3-yl]methyl}phenyl)carbamate]
N#Cc1cccc(-n2ccc(=O)c(Cc3cccc(NC(=O)OCC4CCOCC4)c3)n2)c1 [Example 579, tetrahydro-2H-pyran-4-ylmethyl (3-{[1-(3-cyanophenyl)-4-oxo-1,4-dihydropyridazin-3-yl]methyl}phenyl)carbamate]
CCCOC(=O)Nc1cccc(Cc2nn(-c3cccc(C#N)c3)ccc2=O)c1 [Example 580, propyl (3-{[1-(3-cyanophenyl)-4-oxo-1,4-dihydropyridazin-3-yl]methyl}phenyl)carbamate]
N#Cc1cccc(-n2ccc(=O)c(Cc3cccc(NC(=O)OCCN4CCCC4=O)c3)n2)c1 [Example 582, 2-(2-oxopyrrolidin-1-yl)ethyl (3-{[1-(3-cyanophenyl)-4-oxo-1,4-dihydropyridazin-3-yl]methyl}phenyl)carbamate]
N#Cc1cccc(-n2ccc(=O)c(Cc3cccc(NC(=O)OCCN4CCOCC4=O)c3)n2)c1 [Example 584, 2-(3-oxomorpholin-4-yl)ethyl (3-{[1-(3-cyanophenyl)-4-oxo-1,4-dihydropyridazin-3-yl]methyl}phenyl)carbamate]
N#Cc1cccc(-n2ccc(=O)c(Cc3cccc(NC(=O)OCCOCC(F)(F)F)c3)n2)c1 [Example 586, 2-(2,2,2-trifluoroethoxy)ethyl (3-{[1-(3-cyanophenyl)-4-oxo-1,4-dihydropyridazin-3-yl]methyl}phenyl)carbamate]
N#Cc1cccc(-n2ccc(=O)c(Cc3cccc(NC(=O)OCCn4cncn4)c3)n2)c1 [Example 587, 2-(1H-1,2,4-triazol-1-yl)ethyl (3-{[1-(3-cyanophenyl)-4-oxo-1,4-dihydropyridazin-3-yl]methyl}phenyl)carbamate]
CN(C)C(=O)CCOC(=O)Nc1cccc(Cc2nn(-c3cccc(C#N)c3)ccc2=O)c1 [Example 588, 3-(dimethylamino)-3-oxopropyl (3-{[1-(3-cyanophenyl)-4-oxo-1,4-dihydropyridazin-3-yl]methyl}phenyl)carbamate]
CN(C)C(=O)CCOC(=O)Nc1cccc(Cc2nn(-c3cc(F)cc(F)c3)ccc2=O)c1 [Example 589, 3-(dimethylamino)-3-oxopropyl (3-{[1-(3,5-difluorophenyl)-4-oxo-1,4-dihydropyridazin-3-yl]methyl}phenyl)carbamate]
CCCOC(=O)Nc1cccc(Cc2nn(-c3cc(F)cc(F)c3)ccc2=O)c1 [Example 590, propyl (3-{[1-(3,5-difluorophenyl)-4-oxo-1,4-dihydropyridazin-3-yl]methyl}phenyl)carbamate]
O=C(Nc1cccc(Cc2nn(-c3cc(F)cc(F)c3)ccc2=O)c1)OCCN1CCCC1=O [Example 592, 2-(2-oxopyrrolidin-1-yl)ethyl (3-{[1-(3,5-difluorophenyl)-4-oxo-1,4-dihydropyridazin-3-yl]methyl}phenyl)carbamate]
O=C(Nc1cccc(Cc2nn(-c3cc(F)cc(F)c3)ccc2=O)c1)OCCOCC(F)(F)F [Example 595, 2-(2,2,2-trifluoroethoxy)ethyl (3-{[1-(3,5-difluorophenyl)-4-oxo-1,4-dihydropyridazin-3-yl]methyl}phenyl)carbamate]
N#Cc1cccc(-n2ccc(=O)c(Cc3cccc(NC(=O)OCCN4CCS(=O)(=O)CC4)c3)n2)c1 [Example 596, 2-(1,1-dioxidothio-morpholin-4-yl)ethyl (3-{[1-(3-cyanophenyl)-4-oxo-1,4-dihydropyridazin-3-yl]methyl}phenyl)carbamate]
N#Cc1cccc(-n2ccc(=O)c(Cc3cccc(NC(=O)OCCN4CCOCC4)c3)n2)c1 [Example 597, 2-morpholin-4-ylethyl (3-{[1-(3-cyanophenyl)-4-oxo-1,4-dihydropyridazin-3-yl]methyl}phenyl)carbamate]
N#Cc1cccc(-n2ccc(=O)c(Cc3cccc(NC(=O)OCCC4CCOCC4)c3)n2)c1 [Example 598, 2-(tetrahydro-2H-pyran-4-yl)ethyl (3-{[1-(3-cyanophenyl)-4-oxo-1,4-dihydropyridazin-3-yl]methyl}phenyl)carbamate]
COCCOCCOC(=O)Nc1cccc(Cc2nn(-c3cc(F)c(F)c(F)c3)ccc2=O)c1 [Example 599, 2-(2-methoxyethoxy)ethyl (3-{[4-oxo-1-(3,4,5-trifluorophenyl)-1,4-dihydropyridazin-3-yl]methyl}phenyl)carbamate]
COCCOCCOC(=O)Nc1cccc(Cc2nn(-c3cccc(C#N)c3)ccc2=O)c1 [Example 600, 2-(2-methoxyethoxy)ethyl (3-{[1-(3-cyanophenyl)-4-oxo-1,4-dihydropyridazin-3-yl]methyl}phenyl)carbamate]
COCCOCCOC(=O)Nc1cccc(Cc2nn(-c3ccc(F)c(F)c3)ccc2=O)c1 [Example 602, 2-(2-methoxyethoxy)ethyl (3-{[1-(3,4-difluorophenyl)-4-oxo-1,4-dihydropyridazin-3-yl]methyl}phenyl)carbamate]
O=C1CN(CCOC(=O)Nc2cccc(Cc3nn(-c4cc(F)cc(F)c4)ccc3=O)c2)CCN1 [Example 604, 2-(3-oxopiperazin-1-yl)ethyl (3-{[1-(3,5-difluorophenyl)-4-oxo-1,4-dihydropyridazin-3-yl]methyl}phenyl)carbamate]
O=C(Nc1cccc(Cc2nn(-c3cc(F)cc(F)c3)ccc2=O)c1)OCCN1CCOCC1=O [Example 605, 2-(3-oxomorpholin-4-yl)ethyl (3-{[1-(3,5-difluorophenyl)-4-oxo-1,4-dihydropyridazin-3-yl]methyl}phenyl)carbamate]
O=C(Nc1cccc(Cc2nn(-c3cc(F)cc(F)c3)ccc2=O)c1)OCC1CCOCC1 [Example 606, tetrahydro-2H-pyran-4-ylmethyl (3-{[1-(3,5-difluorophenyl)-4-oxo-1,4-dihydropyridazin-3-yl]methyl}phenyl)carbamate]
COCCOCCOC(=O)Nc1cccc(Cc2nn(-c3cc(F)cc(F)c3)ccc2=O)c1 [Example 608, 2-(2-methoxyethoxy)ethyl (3-{[1-(3,5-difluorophenyl)-4-oxo-1,4-dihydropyridazin-3-yl]methyl}phenyl)carbamate]
Cn1cc(-n2ccc(=O)c(Cc3cccc(NC(=O)OCC4CC(C)(C)OC(C)(C)C4)c3)n2)cn1 [Example 609, (2,2,6,6-tetramethyltetra-hydro-2H-pyran-4-yl)methyl (3-{[1-(1-methyl-1H-pyrazol-4-yl)-4-oxo-1,4-dihydropyridazin-3-yl]methyl}phenyl)carbamate]
